In brackets after ≈: the same amount, converted by molar mass. Activity calls are given as the source filed them. The calls are words filed in the database; no cut-off is given here.
How the values were obtained:
Salmonella typhimurium [1] = experiment: Antimicrobial activity against PR-39-resistant Salmonella enterica serovar Typhimurium LT2 DA10899 harboring Q179Stop mutant gene by Etest; format: functional
Salmonella typhimurium [2] = experiment: Antimicrobial activity against PR-39-resistant sbmA-deficient Salmonella enterica serovar Typhimurium LT2 DA12088 by Etest; format: functional
Salmonella typhimurium [3] = experiment: Antimicrobial activity against PR-39-resistant Salmonella enterica serovar Typhimurium LT2 DA6192 by Etest; format: functional
Salmonella typhimurium [4] = experiment: Antimicrobial activity against Salmonella enterica serovar Typhimurium LT2 by Etest; format: functional, Salmonella enterica subsp. enterica serovar Typhimurium
Salmonella typhimurium [5] = experiment: Antimicrobial activity against Salmonella enterica serovar Typhimurium LT2 DA6192 by Etest; format: functional
Salmonella typhimurium [6] = experiment: Antimicrobial activity against Salmonella enterica serovar Typhimurium LT2 DA10896 harboring sbmA T375K mutant gene by Etest; format: functional
Salmonella typhimurium [7] = experiment: Antimicrobial activity against Salmonella enterica serovar Typhimurium LT2 DA10897 harboring sbmA W373Stop mutant gene by Etest; format: functional
Salmonella typhimurium [8] = experiment: Antimicrobial activity against Salmonella enterica serovar Typhimurium LT2 DA10898 harboring deletion of bp 967 in sbmA gene by Etest; format: functional
Salmonella typhimurium [9] = experiment: Antimicrobial activity against Salmonella enterica serovar Typhimurium LT2 DA10899 harboring sbmA Q179Stop mutant gene by Etest; format: functional
Salmonella typhimurium [10] = experiment: Antimicrobial activity against Salmonella enterica serovar Typhimurium LT2 DA10902 harboring deletion of bp 843-844 in sbmA gene by Etest; format: functional
Salmonella typhimurium [11] = experiment: Antimicrobial activity against Salmonella enterica serovar Typhimurium LT2 DA10905 harboring sbmA L379P mutant gene by Etest; format: functional
Salmonella typhimurium [12] = experiment: Antimicrobial activity against Salmonella enterica serovar Typhimurium LT2 DA10907 harboring sbmA E287K mutant gene by Etest; format: functional
Salmonella typhimurium [13] = experiment: Antimicrobial activity against Salmonella enterica serovar Typhimurium LT2 DA10912 harboring sbmA Y326C mutant gene by Etest; format: functional
Salmonella typhimurium [14] = experiment: Antimicrobial activity against Salmonella enterica serovar Typhimurium LT2 DA10913 harboring sbmA C67Stop mutant gene by Etest; format: functional
Salmonella typhimurium [15] = experiment: Antimicrobial activity against Salmonella enterica serovar Typhimurium LT2 DA10914 harboring sbmA S251L mutant gene by Etest; format: functional
Salmonella typhimurium [16] = experiment: Antimicrobial activity against sbmA-deficient Salmonella enterica serovar Typhimurium LT2 DA12088 by Etest; format: functional
Salmonella typhimurium [17] = experiment: Antimicrobial activity against sbmA-deficient Salmonella enterica serovar Typhimurium LT2 DA13090 harboring sbmA gene by Etest in presence of arabinose; format: functional
Salmonella typhimurium [18] = experiment: Antimicrobial activity against Salmonella enterica serovar Typhimurium LT2 DA13088 harboring sbmA gene by Etest in presence of arabinose; format: functional
Salmonella typhimurium [19] = experiment: Antimicrobial activity against Salmonella enterica serovar Typhimurium LT2 DA14344 harboring sbmA Q179Stop gene by Etest in presence of arabinose; format: functional
Salmonella typhimurium [20] = experiment: Antimicrobial activity against Salmonella enterica serovar Typhimurium LT2 at 8 uM after 24 hrs; format: functional, organism-based; conditions: Salmonella enterica subsp. enterica serovar Typhimurium
Salmonella typhimurium [21] = experiment: Antimicrobial activity against Salmonella enterica serovar Typhimurium LT2 DA10899 harboring Q179Stop mutant gene at 8 uM after 24 hrs; format: functional, organism-based; conditions: Salmonella enterica subsp. enterica serovar Typhimurium str. LT2
Salmonella typhimurium [22] = experiment: Antimicrobial activity against sbmA-deficient Salmonella enterica serovar Typhimurium LT2 DA12088 at 8 uM after 24 hrs; format: functional, organism-based; conditions: Salmonella enterica subsp. enterica serovar Typhimurium str. LT2
Salmonella typhimurium [23] = experiment: Antimicrobial activity against Salmonella enterica serovar Typhimurium LT2 at 16 uM after 24 hrs; format: functional, organism-based; conditions: Salmonella enterica subsp. enterica serovar Typhimurium
Salmonella typhimurium [24] = experiment: Antimicrobial activity against Salmonella enterica serovar Typhimurium LT2 DA10899 harboring Q179Stop mutant gene at 16 uM after 24 hrs; format: functional, organism-based; conditions: Salmonella enterica subsp. enterica serovar Typhimurium str. LT2
Salmonella typhimurium [25] = experiment: Antimicrobial activity against sbmA-deficient Salmonella enterica serovar Typhimurium LT2 DA12088 at 16 uM after 24 hrs; format: functional, organism-based; conditions: Salmonella enterica subsp. enterica serovar Typhimurium str. LT2
Salmonella typhimurium [26] = experiment: Antimicrobial activity against sbmA-deficient Salmonella enterica serovar Typhimurium LT2 DA12088 assessed as log increase in survival rate at 4 uM after 24 hrs relative to wild type; format: functional
Salmonella typhimurium [27] = experiment: Antimicrobial activity against sbmA-deficient Salmonella enterica serovar Typhimurium LT2 DA12088 assessed as log increase in survival rate at 8 uM after 24 hrs relative to wild type; format: functional
Salmonella typhimurium [28] = experiment: Antimicrobial activity against sbmA-deficient Salmonella enterica serovar Typhimurium LT2 DA12088 assessed as log increase in survival rate at 16 uM after 24 hrs relative to wild type; format: functional
[29] = Salmonella enterica subsp. enterica serovar Typhimurium str. LT2

## CC1(C)S[C@@H]2[C@H](NC(=O)[C@H](N)c3ccccc3)C(=O)N2[C@H]1C(=O)O [AMPICILLIN]
Salmonella typhimurium [1]
  MIC: 0.75 µg/mL (≈ 2.15 µM)
Salmonella typhimurium [2]
  MIC: 0.75 µg/mL (≈ 2.15 µM)
Salmonella typhimurium [3]
  MIC: 0.75 µg/mL (≈ 2.15 µM)

## CC[C@H](C)[C@H](NC(=O)[C@H](CCCCN)NC(=O)[C@H](CCC(=O)O)NC(=O)[C@H](CCCCN)NC(=O)[C@H](CO)NC(=O)[C@H](CCCCN)NC(=O)[C@H](CCCNC(=N)N)NC(=O)[C@H](Cc1ccccc1)NC(=O)[C@H](Cc1ccccc1)NC(=O)[C@H](CC(=O)O)NC(=O)CNC(=O)[C@H](CC(C)C)NC(=O)[C@@H](N)CC(C)C)C(=O)NCC(=O)N[C@@H](CCCCN)C(=O)N[C@@H](CCC(=O)O)C(=O)N[C@@H](Cc1ccccc1)C(=O)N[C@@H](CCCCN)C(=O)N[C@@H](CCCNC(=N)N)C(=O)N[C@H](C(=O)N[C@H](C(=O)N[C@@H](CCC(N)=O)C(=O)N[C@@H](CCCNC(=N)N)C(=O)N[C@H](C(=O)N[C@@H](CCCCN)C(=O)N[C@@H](CC(=O)O)C(=O)N[C@@H](Cc1ccccc1)C(=O)N[C@@H](CC(C)C)C(=O)N[C@@H](CCCNC(=N)N)C(=O)N[C@@H](CC(N)=O)C(=O)N[C@@H](CC(C)C)C(=O)N[C@H](C(=O)N1CCC[C@H]1C(=O)N[C@@H](CCCNC(=N)N)C(=O)N[C@H](C(=O)N[C@@H](CCC(=O)O)C(=O)N[C@@H](CO)C(=O)O)[C@@H](C)O)C(C)C)[C@@H](C)CC)C(C)C)[C@@H](C)CC [CATHELICIDIN]
Salmonella typhimurium [1]
  MIC: 66 µg/mL (≈ 14.7 µM)
Salmonella typhimurium [2]
  MIC: 66 µg/mL (≈ 14.7 µM)
Salmonella typhimurium [3]
  MIC: 66 µg/mL (≈ 14.7 µM)

## CO/N=C(\C(=O)N[C@@H]1C(=O)N2C(C(=O)[O-])=C(C[N+]3(C)CCCC3)CS[C@H]12)c1csc(N)n1 [CEFEPIME]
Salmonella typhimurium [1]
  MIC: 0.064 µg/mL (≈ 0.133 µM)
Salmonella typhimurium [2]
  MIC: 0.064 µg/mL (≈ 0.133 µM)
Salmonella typhimurium [3]
  MIC: 0.064 µg/mL (≈ 0.133 µM)

## COCC1=C(C(=O)O)N2C(=O)[C@@H](NC(=O)/C(=N\OC)c3csc(N)n3)[C@H]2SC1 [CEFPODOXIME]
Salmonella typhimurium [1]
  MIC: 0.38 µg/mL (≈ 0.889 µM)
Salmonella typhimurium [2]
  MIC: 0.38 µg/mL (≈ 0.889 µM)
Salmonella typhimurium [3]
  MIC: 0.38 µg/mL (≈ 0.889 µM)

## CO/N=C(\C(=O)N[C@@H]1C(=O)N2C(C(=O)O)=C(COC(N)=O)CS[C@H]12)c1ccco1 [CEFUROXIME]
Salmonella typhimurium [1]
  MIC: 4 µg/mL (≈ 9.43 µM)
Salmonella typhimurium [2]
  MIC: 4 µg/mL (≈ 9.43 µM)
Salmonella typhimurium [3]
  MIC: 4 µg/mL (≈ 9.43 µM)

## CC(=O)OCC1=C(C(=O)O)N2C(=O)[C@@H](NC(=O)Cc3cccs3)[C@H]2SC1 [CEPHALOTHIN]
Salmonella typhimurium [1]
  MIC: 3 µg/mL (≈ 7.57 µM)
Salmonella typhimurium [2]
  MIC: 3 µg/mL (≈ 7.57 µM)
Salmonella typhimurium [3]
  MIC: 3 µg/mL (≈ 7.57 µM)

## O=C(N[C@H](CO)[C@H](O)c1ccc([N+](=O)[O-])cc1)C(Cl)Cl [CHLORAMPHENICOL]
Salmonella typhimurium [1]
  MIC: 4 µg/mL (≈ 12.4 µM)
Salmonella typhimurium [2]
  MIC: 4 µg/mL (≈ 12.4 µM)
Salmonella typhimurium [3]
  MIC: 4 µg/mL (≈ 12.4 µM)

## O=C(O)c1cn(C2CC2)c2cc(N3CCNCC3)c(F)cc2c1=O [CIPROFLOXACIN]
Salmonella typhimurium [1]
  MIC: 0.008 µg/mL (≈ 0.0241 µM)
Salmonella typhimurium [2]
  MIC: 0.008 µg/mL (≈ 0.0241 µM)
Salmonella typhimurium [3]
  MIC: 0.008 µg/mL (≈ 0.0241 µM)

## NC[C@H]1O[C@H](O[C@H]2[C@H](O)[C@@H](O[C@H]3O[C@H](CO)[C@@H](O)[C@H](N)[C@H]3O)[C@H](N)C[C@@H]2N)[C@H](O)[C@@H](O)[C@@H]1O [KANAMYCIN]
Salmonella typhimurium [1]
  MIC: 1.5 µg/mL (≈ 3.1 µM)
Salmonella typhimurium [2]
  MIC: 1.5 µg/mL (≈ 3.1 µM)
Salmonella typhimurium [3]
  MIC: 1.5 µg/mL (≈ 3.1 µM)

## CCn1cc(C(=O)O)c(=O)c2ccc(C)nc21 [NALIDIXIC ACID]
Salmonella typhimurium [1]
  MIC: 4 µg/mL (≈ 17.2 µM)
Salmonella typhimurium [2]
  MIC: 4 µg/mL (≈ 17.2 µM)
Salmonella typhimurium [3]
  MIC: 4 µg/mL (≈ 17.2 µM)

## O=C1CN(/N=C/c2ccc([N+](=O)[O-])o2)C(=O)N1 [NITROFURANTOIN]
Salmonella typhimurium [1]
  MIC: 8 µg/mL (≈ 33.6 µM)
Salmonella typhimurium [2]
  MIC: 8 µg/mL (≈ 33.6 µM)
Salmonella typhimurium [3]
  MIC: 8 µg/mL (≈ 33.6 µM)

## CN[C@@H]1[C@H](O[C@H]2[C@H](O[C@H]3[C@H](O)[C@@H](O)[C@H](N=C(N)N)[C@@H](O)[C@@H]3N=C(N)N)O[C@@H](C)[C@]2(O)C=O)O[C@@H](CO)[C@H](O)[C@H]1O [STREPTOMYCIN]
Salmonella typhimurium [1]
  MIC: 3 µg/mL (≈ 5.16 µM)
Salmonella typhimurium [2]
  MIC: 3 µg/mL (≈ 5.16 µM)
Salmonella typhimurium [3]
  MIC: 3 µg/mL (≈ 5.16 µM)

## CN(C)[C@@H]1C(O)=C(C(N)=O)C(=O)[C@@]2(O)C(O)=C3C(=O)c4c(O)cccc4[C@@](C)(O)[C@H]3C[C@@H]12 [TETRACYCLINE]
Salmonella typhimurium [1]
  MIC: 3 µg/mL (≈ 6.75 µM)
Salmonella typhimurium [2]
  MIC: 3 µg/mL (≈ 6.75 µM)
Salmonella typhimurium [3]
  MIC: 3 µg/mL (≈ 6.75 µM)

## BLEOMYCIN
Salmonella typhimurium [1]; [29]
  MIC: 1.8 µg/mL
Salmonella typhimurium [2]; [29]
  MIC: 1.8 µg/mL
Salmonella typhimurium [3]; [29]
  MIC: 0.4 µg/mL

## COLISTIN
Salmonella typhimurium [1]; [29]
  MIC: 0.5 µg/mL
Salmonella typhimurium [2]; [29]
  MIC: 0.5 µg/mL
Salmonella typhimurium [3]; [29]
  MIC: 0.5 µg/mL

## H-GLLRKGGEKIGEKLKKIGQKIKNFFQKLVPQPEQ-OH
Salmonella typhimurium [1]
  MIC: 32 µg/mL
Salmonella typhimurium [2]
  MIC: 32 µg/mL
Salmonella typhimurium [3]
  MIC: 32 µg/mL

## H-GLVRKGGEKFGEKLRKIGQKIKEFFQKLALEIEQ-OH
Salmonella typhimurium [1]
  MIC: 23 µg/mL
Salmonella typhimurium [2]
  MIC: 30 µg/mL
Salmonella typhimurium [3]
  MIC: 23 µg/mL

## H-RRRPRPPYLPRPRPPPFFPPRLPPRIPPGFPPRFPPRFP-NH2
Salmonella typhimurium [4]
  MIC: 3 µM
Salmonella typhimurium [5]
  MIC: 2 µM
Salmonella typhimurium [6]
  MIC: 6 µM
Salmonella typhimurium [7]
  MIC: 7 µM
Salmonella typhimurium [8]
  MIC: 7 µM
Salmonella typhimurium [9]
  MIC: 6 µM
Salmonella typhimurium [10]
  MIC: 7 µM
Salmonella typhimurium [11]
  MIC: 7 µM
Salmonella typhimurium [12]
  MIC: 7 µM
Salmonella typhimurium [13]
  MIC: 5 µM
Salmonella typhimurium [14]
  MIC: 7 µM
Salmonella typhimurium [15]
  MIC: 7 µM
Salmonella typhimurium [16]
  MIC: 6 µM
Salmonella typhimurium [17]
  MIC: 3 µM
Salmonella typhimurium [18]
  MIC: 1.5 µM
Salmonella typhimurium [19]
  MIC: 3 µM
Salmonella typhimurium [20]
  Activity: inactive
Salmonella typhimurium [21]
  Activity: inactive
Salmonella typhimurium [22]
  Activity: inactive
Salmonella typhimurium [23]
  Activity: inactive
Salmonella typhimurium [24]
  Activity: inactive
Salmonella typhimurium [25]
  Activity: inactive
Salmonella typhimurium [26]
  FC: 4
Salmonella typhimurium [27]
  FC: 4
Salmonella typhimurium [28]
  FC: 4
Salmonella typhimurium [1]
  MIC: 28 µg/mL
Salmonella typhimurium [2]
  MIC: 28 µg/mL
Salmonella typhimurium [3]
  MIC: 8.5 µg/mL
